Source: ChEMBL document CHEMBL3352242, “Structure-based design of substituted piperidines as a new class of highly efficacious oral direct Renin inhibitors” (ACS Med Chem Lett, 2014)
Active and inactive are the calls of the source. No cut-off for these calls is given here.

Key:
Renin [1] = target: T1, Renin (Homo sapiens, UniProt P00797); test: Inhibition of human recombinant renin in presence of human plasma using Ac- IHPFHL-VIHNK-(DY-505-X5)-COOH substrate by fluorimetric assay
T1 sequence (P00797 whole entry): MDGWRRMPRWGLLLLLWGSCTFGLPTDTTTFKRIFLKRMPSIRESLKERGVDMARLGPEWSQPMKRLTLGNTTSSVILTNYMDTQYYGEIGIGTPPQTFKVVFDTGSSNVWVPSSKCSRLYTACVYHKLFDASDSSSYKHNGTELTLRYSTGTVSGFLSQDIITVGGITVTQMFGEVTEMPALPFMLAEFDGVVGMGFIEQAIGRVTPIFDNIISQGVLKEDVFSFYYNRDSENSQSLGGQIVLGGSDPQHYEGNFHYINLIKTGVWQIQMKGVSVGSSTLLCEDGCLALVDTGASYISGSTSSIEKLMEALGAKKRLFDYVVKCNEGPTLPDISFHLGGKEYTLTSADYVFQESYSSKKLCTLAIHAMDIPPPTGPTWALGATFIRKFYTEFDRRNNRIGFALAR

[2] = target: Voltage-gated inwardly rectifying potassium channel KCNH2 (Homo sapiens, UniProt Q12809); test: Displacement of [3H]dofetilide from human ERG expressed in HEK293 cell membranes incubated for 90 mins by beta-counting method
[3] = Clearance in human liver microsomes; type: ADME; settings: read-out: CLH
[4] = Clearance in rat liver microsomes; type: ADME; settings: read-out: CLH
Renin [5] = target: T1, Renin; test: Inhibition of human recombinant renin using fluorescence-quenched RE(EDANS)IHPFHLVIHTK(Dabcyl)R substrate by fluorimetric assay
[6] = Lipophilicity, logD of the compound at pH 6.8; type: physicochemical; settings: buffer
[7] = Oral bioavailability in Sprague-Dawley rat at 6 mg/kg; type: ADME, organism-based; settings: in vivo
Rattus norvegicus [8] = test: Reduction in mean arterial pressure in human renin and human angiotensinogen double transgenic rat at 100 mg/kg, po after 42 hrs; type: functional, organism-based; design: dose 100 mg/kg; settings: Artery
Rattus norvegicus [9] = test: Reduction in mean arterial pressure in human renin and human angiotensinogen double transgenic rat at 1 to 100 mg/kg, po; type: functional, organism-based; settings: Artery
Rattus norvegicus [10] = test: Dose normalized AUC (infinity) in Sprague-Dawley rat at 6 mg/kg, po; type: ADME, organism-based; design: dose 6 mg/kg, route oral; settings: in vivo
[11] = Volume of distribution at steady state in Sprague-Dawley rat at 2 mg/kg, iv; type: ADME, organism-based; design: dose 2 mg/kg, route intravenous; settings: in vivo, read-out: Vdss
[12] = Half life in Sprague-Dawley rat at 2 mg/kg, iv; type: ADME, organism-based; design: dose 2 mg/kg, route intravenous; settings: in vivo
Rattus norvegicus [13] = test: Dose normalized Cmax inSprague-Dawley rat at 6 mg/kg, po; type: ADME, organism-based, Sprague-Dawley; design: dose 6 mg/kg, route oral; settings: in vivo
[14] = Clearance in Sprague-Dawley rat at 2 mg/kg, iv; type: ADME, organism-based; design: dose 2 mg/kg, route intravenous; settings: in vivo

Sequence of Voltage-gated inwardly rectifying potassium channel KCNH2 (Q12809 whole entry): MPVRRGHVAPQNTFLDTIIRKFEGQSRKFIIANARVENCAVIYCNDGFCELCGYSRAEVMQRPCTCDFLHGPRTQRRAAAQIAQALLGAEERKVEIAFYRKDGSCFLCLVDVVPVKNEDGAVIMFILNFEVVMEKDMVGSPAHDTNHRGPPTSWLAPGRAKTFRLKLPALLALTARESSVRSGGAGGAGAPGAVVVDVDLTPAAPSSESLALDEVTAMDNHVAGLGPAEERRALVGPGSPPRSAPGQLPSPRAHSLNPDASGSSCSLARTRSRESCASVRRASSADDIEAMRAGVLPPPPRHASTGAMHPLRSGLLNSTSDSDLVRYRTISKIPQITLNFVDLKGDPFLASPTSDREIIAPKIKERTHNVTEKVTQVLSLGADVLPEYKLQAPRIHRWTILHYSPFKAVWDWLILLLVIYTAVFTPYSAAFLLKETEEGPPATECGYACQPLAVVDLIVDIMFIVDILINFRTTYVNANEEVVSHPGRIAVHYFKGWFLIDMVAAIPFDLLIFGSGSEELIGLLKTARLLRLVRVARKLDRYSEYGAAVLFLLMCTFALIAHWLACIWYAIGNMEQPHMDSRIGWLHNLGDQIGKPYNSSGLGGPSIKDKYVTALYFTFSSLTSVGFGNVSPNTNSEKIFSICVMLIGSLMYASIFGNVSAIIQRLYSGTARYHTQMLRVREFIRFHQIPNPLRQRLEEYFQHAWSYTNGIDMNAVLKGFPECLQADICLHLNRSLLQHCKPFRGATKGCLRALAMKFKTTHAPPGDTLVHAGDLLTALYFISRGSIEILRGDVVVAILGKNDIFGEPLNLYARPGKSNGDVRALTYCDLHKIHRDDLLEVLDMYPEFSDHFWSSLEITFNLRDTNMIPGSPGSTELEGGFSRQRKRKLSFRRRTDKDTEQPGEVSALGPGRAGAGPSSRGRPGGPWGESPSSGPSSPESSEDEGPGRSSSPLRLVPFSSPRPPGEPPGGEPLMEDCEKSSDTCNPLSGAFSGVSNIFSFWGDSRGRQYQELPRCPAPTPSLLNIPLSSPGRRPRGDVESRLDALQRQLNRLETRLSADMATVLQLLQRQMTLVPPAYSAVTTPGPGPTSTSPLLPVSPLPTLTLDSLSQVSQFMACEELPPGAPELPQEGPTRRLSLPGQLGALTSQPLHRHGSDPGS

Structure (SMILES) | IC50 (Renin [1]) | microsomal CLint [3] | microsomal CLint [4] | IC50 (Renin [5]) | bioavailability [7] | also measured
CCOC[C@@H](CC(C)C)NC(=O)[C@@H]1CNC[C@H](C(=O)N(c2ccc(C(C)C)cn2)C2CC2)C1 [listing 1 of 2 here] | 1.1 nM | < 3.4 µL/min/mg | 13 µL/min/mg | – | – | IC50 [2]: 7000 nM
CCOC[C@@H](CC(C)C)NC(=O)[C@@H]1CNC[C@H](C(=O)N(c2cc(OC)c(C(C)C)cn2)C2CC2)C1 [listing 2 of 2 here] | – | – | – | – | – | logD [6]: 2.2
CCOC[C@@H](CC(C)C)NC(=O)[C@@H]1CNC[C@H](C(=O)N(c2ccc(C(C)C)cc2)C2CC2)C1 | 5340 nM | – | – | 4 nM | – | –
COCCCn1cc(CN(C(=O)[C@H]2CNC[C@@H](C(=O)N[C@H](CCO)c3ccccc3)C2)C2CC2)c2ccccc21 | 1 nM | 173 µL/min/mg | 109 µL/min/mg | 0.4 nM | < 0.1% | –
CCOC[C@@H](CC(C)C)NC(=O)[C@@H]1CNC[C@H](C(=O)N(c2ccc(C(C)C)cn2)C2CC2)[C@@H]1O [listing 1 of 2 here] | – | – | – | – | – | Activity (Rattus norvegicus [8]): Active; Activity (Rattus norvegicus [9]): Dose-dependent effect
CCOC[C@@H](CC(C)C)NC(=O)[C@@H]1CNC[C@H](C(=O)N(c2ccc(C(C)C)cn2)C2CC2)C1 [listing 2 of 2 here] | – | – | – | – | – | logD [6]: 4.9
CCOC[C@@H](CC(C)C)NC(=O)[C@@H]1CNC[C@H](C(=O)N(c2cc(OCC)c(CC)cn2)C2CC2)[C@@H]1O [listing 1 of 2 here] | – | – | – | – | – | logD [6]: 0.93
COCCCn1cc(CN(C(=O)[C@H]2CNC[C@@H](C(=O)N[C@@H](CO)CC(C)C)C2)C2CC2)c2ccccc21 | 8 nM | 157 µL/min/mg | 111 µL/min/mg | 3 nM | 0.4% | –
COCCCn1cc(CN(C(=O)[C@H]2CNC[C@@H](C(=O)Nc3c(C)cccc3OC)C2)C2CC2)c2ccccc21 | 2 nM | 679 µL/min/mg | 533 µL/min/mg | 0.4 nM | – | –
COCCCn1cc(CN(C(=O)[C@H]2CNC[C@@H](C(=O)NCCC(C)C)C2)C2CC2)c2ccccc21 | 40 nM | 194 µL/min/mg | 141 µL/min/mg | 3 nM | 29% | –
COCCCn1cc(CN(C(=O)[C@H]2CNC[C@@H](NC(=O)CC(C)C)C2)C2CC2)c2ccccc21 (racemic) | – | – | – | 300 nM | – | –
CCOC[C@@H](CC(C)C)NC(=O)[C@@H]1CNC[C@H](C(=O)N(c2cc3c(cc2F)OC(C)(C)C(=O)N3CCCOC)C2CC2)C1.Cl | – | 61 µL/min/mg | 198 µL/min/mg | – | 20% | AUC/dose (Rattus norvegicus [10]): 49 nM·h/mg/kg; Vd [11]: 12 L/kg; half-life [12]: 1.9 h; Cmax/dose (Rattus norvegicus [13]): 12 nM/mg/kg; clearance [14]: 122 mL/min/kg
Cc1ccc(S(=O)(=O)N[C@@H]2CNC[C@H](C(=O)N(Cc3cccc(Cl)c3Cl)C3CC3)C2)cc1 (racemic) | – | – | – | 2600 nM | – | –
CCOC[C@@H](CC(C)C)NC(=O)[C@@H]1CNC[C@H](C(=O)N(c2ccc(C(C)C)cn2)C2CC2)C1.O=C(O)/C=C/C(=O)O | – | – | – | – | 45% | AUC/dose (Rattus norvegicus [10]): 296 nM·h/mg/kg; Vd [11]: 7.2 L/kg; half-life [12]: 6.5 h; Cmax/dose (Rattus norvegicus [13]): 63 nM/mg/kg; clearance [14]: 60 mL/min/kg
CCOC[C@@H](CC(C)C)NC(=O)[C@@H]1CNC[C@H](C(=O)N(c2cc(OCC)c(CC)cn2)C2CC2)C1 [listing 2 of 2 here] | – | – | – | – | – | logD [6]: 2.1
CCOC[C@@H](CC(C)C)NC(=O)[C@@H]1CNC[C@H](C(=O)N(c2cc(OC)c(C(C)C)cn2)C2CC2)C1.O=C(O)C(O)C(O)C(=O)O | – | – | – | – | 39% | AUC/dose (Rattus norvegicus [10]): 324 nM·h/mg/kg; Vd [11]: 4.3 L/kg; half-life [12]: 7 h; Cmax/dose (Rattus norvegicus [13]): 68 nM/mg/kg; clearance [14]: 40 mL/min/kg
Cc1ccc(S(=O)(=O)N[C@@H]2CNC[C@H](C(=O)NC(c3ccccc3)c3ccccc3)C2)cc1 (racemic) | 15200 nM | – | – | 1200 nM | – | –
CCOC[C@@H](CC(C)C)NC(=O)[C@@H]1CNC[C@H](C(=O)N(c2cc(OCCCOC)c(C(C)C)cc2F)C2CC2)C1 | 2 nM | 115 µL/min/mg | 214 µL/min/mg | 0.3 nM | – | –
CC(C)(C)OC(=O)N[C@@H]1CNC[C@H](C(=O)N(Cc2cccc(Cl)c2Cl)C2CC2)C1 (racemic) | – | – | – | 200 nM | – | –
CCOC[C@@H](CC(C)C)NC(=O)[C@@H]1CNC[C@H](C(=O)N(c2ccc(C(C)C)c(OCCCOC)n2)C2CC2)C1 | 6 nM | 289 µL/min/mg | 252 µL/min/mg | 0.8 nM | – | IC50 [2]: 3300 nM
CCOC[C@@H](CC(C)C)NC(=O)[C@@H]1CNC[C@H](C(=O)N(c2ccc(C(C)C)cn2)C2CC2)[C@@H]1O [listing 2 of 2 here] | 0.6 nM | < 3.4 µL/min/mg | 52 µL/min/mg | 0.2 nM | – | IC50 [2]: > 30000 nM
COCCCn1cc(CN(C(=O)[C@H]2CNC[C@@H](C(=O)NCC(C)C)C2)C2CC2)c2ccccc21 (racemic) | 115 nM | – | – | 15 nM | – | –

Now from value to molecule, other results behind:

IC50 (Renin [1]) | microsomal CLint [3] | microsomal CLint [4] | IC50 (Renin [5]) | bioavailability [7] | Structure (SMILES) | also measured
0.4 nM | 15 µL/min/mg | 101 µL/min/mg | 0.2 nM | – | CCOC[C@@H](CC(C)C)NC(=O)[C@@H]1CNC[C@H](C(=O)N(c2cc(OC)c(C(C)C)cn2)C2CC2)C1 [listing 1 of 2 here] | IC50 [2]: > 30000 nM
2 nM | 22 µL/min/mg | 142 µL/min/mg | – | – | CCOC[C@@H](CC(C)C)NC(=O)[C@@H]1CNC[C@H](C(=O)N(c2cc(OC)c(C(C)C)cn2)C2CC2)[C@@H]1O [listing 1 of 2 here] | –
1 nM | 53 µL/min/mg | 96 µL/min/mg | 0.4 nM | 19% | CCOC[C@@H](CC(C)C)NC(=O)[C@@H]1CNC[C@H](C(=O)N(c2cc(OCCCOC)c(C(C)C)cn2)C2CC2)C1.Cl | AUC/dose (Rattus norvegicus [10]): 93 nM·h/mg/kg; Vd [11]: 11 L/kg; half-life [12]: 4.3 h; Cmax/dose (Rattus norvegicus [13]): 18 nM/mg/kg; clearance [14]: 80 mL/min/kg
– | 46 µL/min/mg | 62 µL/min/mg | 0.2 nM | – | CCOC[C@@H](CC(C)C)NC(=O)[C@@H]1CNC[C@H](C(=O)N(c2cc(OCC)c(CC)cn2)C2CC2)C1 [listing 1 of 2 here] | IC50 [2]: > 30000 nM
2.5 nM | 22 µL/min/mg | 54 µL/min/mg | 0.6 nM | – | CCOC[C@@H](CC(C)C)NC(=O)[C@@H]1CNC[C@H](C(=O)N(c2cc(OCC)c(CC)cn2)C2CC2)[C@@H]1O [listing 2 of 2 here] | –
– | – | – | – | 61% | CCOC[C@@H](CC(C)C)NC(=O)[C@@H]1CNC[C@H](C(=O)N(c2cc(OC)c(C(C)C)cn2)C2CC2)[C@@H]1O [listing 2 of 2 here] | AUC/dose (Rattus norvegicus [10]): 511 nM·h/mg/kg; logD [6]: 0.93; Vd [11]: 6.1 L/kg; half-life [12]: 7.7 h; Cmax/dose (Rattus norvegicus [13]): 74 nM/mg/kg; clearance [14]: 40 mL/min/kg
– | – | – | – | 60% | CCOC[C@@H](CC(C)C)NC(=O)[C@@H]1CNC[C@H](C(=O)N(c2cc(OCC)c(CC)cn2)C2CC2)[C@@H]1O.O=C(O)/C=C/C(=O)O | AUC/dose (Rattus norvegicus [10]): 1630 nM·h/mg/kg; Vd [11]: 2.6 L/kg; half-life [12]: 5.9 h; Cmax/dose (Rattus norvegicus [13]): 252 nM/mg/kg; clearance [14]: 12.3 mL/min/kg
– | – | – | – | 44% | CCOC[C@@H](CC(C)C)NC(=O)[C@@H]1CNC[C@H](C(=O)N(c2cc(OCC)c(CC)cn2)C2CC2)C1.O=C(O)C(O)C(O)C(=O)O | AUC/dose (Rattus norvegicus [10]): 690 nM·h/mg/kg; Vd [11]: 4.6 L/kg; half-life [12]: 7.4 h; Cmax/dose (Rattus norvegicus [13]): 155 nM/mg/kg; clearance [14]: 23.3 mL/min/kg
